# Data as given in patent EP4186500A1, “MEK INHIBITORS FOR THE PREVENTION AND TREATMENT OF LONG COVID SYNDROME” (Atriva Therapeutics GmbH, priority 2021, dated 2023).
# Where two headings read alike, the source gives them in different places.
# What was measured:
# [1] = system: SARS-CoV-2 SA variant B.1351; type: cell-based, Severe acute respiratory syndrome coronavirus; conditions: MOI 0.1, 1 and 10, 50, 75 and 100µM, 24 hours
# SARS-CoV-2 (FI) = type: cell-based, Severe acute respiratory syndrome coronavirus; conditions: ATR-002 100 µM
smiles,measurement,setting,value
"O=C(O)c1ccc(F)c(F)c1Nc1ccc(I)cc1Cl [ATR-002, 2-(2-chloro-4-iodophenylamino)-N-3,4-difluoro benzoic acid]",virus yield,[1]; Calu-3 cells,reduction of virus yield
same,virus yield,[1]; Vero cells,reduction of virus yield
same,production of progeny viral particles,"SARS-CoV-2 (FI); A549-ACE2/TMPRSS2 cells, MOI of 0.001",reduced the production of progeny viral particles
same,production of progeny viral particles,"SARS-CoV-2 (FI); A549-ACE2/TMPRSS2 cells, MOI: 0.01",did not affect the production of progeny viral particles
same,production of progeny viral particles,"SARS-CoV-2 (FI); Calu-3 cells, MOI of 0.001",reduced the production of progeny viral particles
